Data: publication PMC5399447, “Neuroprotective pentapeptide CN-105 is associated with reduced sterile inflammation and improved functional outcomes in a traumatic brain injury murine model” (Scientific Reports, 2017)

Tests used:
[1] = mouse, in vivo, iv, 1.92 mg/kg
Experimental: Pharmacokinetic studies were conducted by Xenobiotic Laboratories(Plainsboro, NJ). Briefly, male CD-1 mice received a single IV bolus dose of [^14C] CN-105 52 μCi/mg(dose of 1.92 mg/kg, and approximately 100 μCi/kg) by tail vein injection. At 0.083, 0.5, 1, 6, 24, and 48 hours post-dose terminal blood samples were collected from 2 animals per timepoint and plasma was isolated for radiometric analysis.
To assess CNS penetration, quantitative whole body autoradiography(QWBA) analysis was performed and areas of interest in blood and brain were compared. The carcasses were frozen in a dry ice/hexane bath and embedded in low viscosity carboxymethylcellulose for sagittal, 30-μm thick sections of low viscosity carboxymethylcellulose-of mouse carcasses were sectioned. Pharmacokinetic data were generated by non-compartmental PK analysis of total radioactivity concentration vs. time profiles for tissues using WinNonlin(version 6.3, Pharsight Corporation, Mountain View, CA).
Selected tissues and areas of interest(AOI) were analyzed using QWBA. The tissues and AOI were analyzed within AIDA software using a region sampling tool. The following parameters were derived for individual subjects: maximum tissue and plasma concentration(Cmax), time of Cmax(tmax), area under the tissue concentration versus time curve from time zero to the last quantifiable tissue concentration(AUC0-t), area under the tissue concentration versus time curve from time zero to 4 hours(AUC0-4), and the apparent terminal half-life(t½). AUC0-4 was calculated using the linear trapezoidal rule. Results for AOIs are expressed in nanogram equivalents of(^14C) CN-105 per gram of tissue(ng equv./g) and were calculated as follows: ng equiv./g is equal to nCi per gram of tissue per nCi/ng of(^14C) CN-105.

[2] = system: microglia in hippocampus of TBI injured mice; assay: F4/80 immunostained microglia, unbiased stereology; assay type: in vivo, mouse; settings: 0.05 mg/kg, 10 days post TBI
Experimental: To assess the effects of CN-105 on inflammation, neuronal injury and neuronal loss, immunohistochemical(IHC) staining was performed using the F4/80 antibody(a marker for mature microglia and macrophages; rat monoclonal, 1:10,000; Serotec, Raleigh, NC) and the Fluoro-Jade B stain(a marker of degenerating neurons; Histo-Chem Inc. Jefferson, AR) on days 10 and 1, respectively, after TBI. IHC was performed on separate cohorts of mice from those used in neurobehavioral tests. As previously described, mice were anesthetized, euthanized, and perfused with 30 ml phosphate-buffered saline(PBS) via transcardiac puncture. The brains were then immersed in buffered formalin overnight and saturated with 30% sucrose in buffer. Sagittal sections(40 μm) were sliced on a freezing microtome and collected in cryoprotectant solution. […]
Prior to quantification, all slides were coded and the analyst was blinded to avoid experimenter bias. For the F4/80 quantification the brains of 5 TBI treated and 6 TBI vehicle treated mice(4–6 sections/mouse) were counted. Every eighth section of the dorsal hippocampus, according to the Paxinos and Franklin(2001) mouse brain atlas, was analyzed using the Stereo Investigator 7.0 software(MicroBrightField, Williston, VT). […] An average of 12 counting frames was analyzed per section, the grid size was 450 × 450 μm, and the dissector dimensions were 80 × 80 × 10 μm. […]

[3] = system: murine closed head injury model (TBI); assay: Morris Water Maze after closed head injury; assay type: in vivo, mouse
From the text: The murine closed head injury model used in this study was previously described. The closed head impact results in injury to selectively vulnerable neurons in cortex and hippocampus, and is associated with vestibulomotor deficits and long term neurocognitive deficits. Although animals do lose body weight, they rapidly regain spontaneous ventilation, righting reflex, and the ability to ambulate. Briefly, 12–14 week-old C57Bl/6 J male mice(Jackson Laboratories, Bar Harbor, ME) were used. The trachea was intubated after anesthesia induction with 4.6% isoflurane and the lungs were mechanically ventilated with 1.6% isoflurane in 30% O2/70% N2. Core body temperature was maintained at 37 °C through a rectal probe. To avoid basilar skull fracture, ear bars are not used. The animal was secured in a stereotactic device in a prone position on a molded acrylic cast with surgical tape across the shoulders. The intubation tube was also secured to the acrylic cast with tape. The acrylic cast is designed to allow the mouse to have 3 mm of space below the head to allow for acceleration/decelaration of the head in this position. The head was shaved and the scalp was incised to expose the skull and identify anatomical landmarks. A concave 3-mm metallic disc was adhered to the skull immediately caudal to bregma. A 2.0-mm diameter pneumatic impactor(Air-Power Inc., High Point, NC) was used to deliver a single midline impact to the center of the disc surface. The impactor was discharged at 6.8 ± 0.2 m/second with a head displacement of 3 mm. After impact, the animals were allowed to recover spontaneous ventilation and then the tracheas were extubated. Mice were allowed free access to food and water. Sham mice were treated identically except for the absence of impact. All mice were housed in the same facility.
CN-105(Ac-VSRRR-amide) was synthesized by Polypeptide Inc.(San Diego, CA) to a purity of >99%, and was delivered in sterile normal saline. Animals were placed in a restrainer(Harvard Apparatus, Holliston, MA), and a single intravenous dose of drug(0.05 mg/kg) was administered by tail vein in a volume of 100 μL. Vehicle treated animals received intravenous injection of 100 μL of normal saline at the same time points. Animals were assigned to treatment group by a coded study identification number after injury using a paper randomization protocol. A block randomization scheme was used, so that an equal number of animals were randomized to each of the treatment groups during concurrent experiments.
As described previously the Morris Water Maze assesses spatial learning and memory by testing the ability of mice to locate a submerged platform. The mice were placed in a pool(105 cm diameter) filled with room temperature(25 °C) water made opaque with fat free powdered milk and allowed up to 90 seconds to locate the submerged platform. The mice performed four trials/day for 4 consecutive days(inter-trial interval = 30 min). The mice were introduced in varying quadrants of the pool for each trial but the location of the platform never varied. The latency to locate the platform was recorded, and the 4 trials per day were averaged. Mice were tested on days 28–31 post-injury(n = 11–12 mice per group). A probe trial was administered on day 4 of the experiment 3 hours after the last test trial was completed. For the probe trial, the platform was removed and the mice were allowed to swim freely for 60 seconds. The percent of the time the mice spent in the platform quadrant was quantified.

For Ac-VSRRR-amide [CN-105], the initial plasma half-life [1] was 29 min, the tmax in serum [1] was 5 min and the “tmax in the brain” value [1] was 30 min. The “density of F4/80 microglia in dorsal hippocampus compared to vehicle” value ([2]; 5 treated and 6 vehicle mice, p = 0.0002) was “significant decrease in density of microglia”, the microglia morphology ([2]; hippocampus) was “almost exclusively small ramified microglia” and the “Morris Water Maze latency to platform compared to vehicle” value ([3]; 0.05 mg/kg iv 2 h after TBI, days 28-31, p = 0.036) was “significantly reduced time to escape to the platform”. The “Morris Water Maze probe trial compared to vehicle” value ([3]; 0.05 mg/kg iv 2 h after TBI, p = 0.0079) was “performed better on the probe trial”, the “Morris Water Maze swim speed compared to vehicle” value ([3]; 0.05 mg/kg iv 2 h after TBI, p = 0.4968) was “no difference in swim speed” and the “Morris Water Maze neurocognitive performance compared to vehicle” value ([3]; 0.05 mg/kg iv 4 hours post-injury) was “reduced deficit on Morris Water Maze testing”. The “Morris Water Maze probe trial compared to vehicle” value ([3]; 0.05 mg/kg iv 4 hours post-injury, p = 0.0211) was “performed better on the probe trial” and the “Morris Water Maze swim speed compared to vehicle” value ([3]; 0.05 mg/kg iv 4 hours post-injury, p = 0.0567) was “no significant difference in swim speed”.
